How the values were obtained:
PD-1/PD-L1 = target: T1, PD-1/PD-L1 (Homo sapiens, UniProt Q9NZQ7); test: PD-1/PD-L1 binding assay (HTRF, PPI-HTRF); conditions: HTRF PD1/PD-L1 binding assay kit; 10 nM Tag1-PD-L1; 25° C.
T1 construct: purchased Cisbio 63ADK000CPDPEB
Procedure: Assay 1 PD-1/PD-L1 Binding Assay
DMSO is from Sigma, Cat No: D5879; 384-well small volume plate (white) is from Greiner, Cat No: 784075; Anti-PD1 blocking antibody (IC50: 10 nM) is from Cisbio, Cat No: 64CUS000C-1a; Anti-PDL1 blocking antibody (IC50: 0.3 nM) is from Cisbio, Cat No: 64CUS000C-1b; HTRF PD1/PD-L1 binding assay kit is from Cisbio, Cat No: 63ADK000CPDPEB.
1. Prepare the compound to be tested at 2x concentration into 1× reaction buffer containing 4% DMSO;
2. Tag1-PD-L1 protein and Tag2-PD1 protein were prepared in 1× reaction buffer at concentrations of […] and 10 nM, respectively. The final reaction concentration of the experiment was 10 nM Tag1-PD-L1 and 2 nM […];
3. anti-Tag1-Eu3+ antibody is prepared in 1x concentration detection buffer at a ratio of 1:100;
4. anti-Tag2-XL665 antibody is prepared in 1x concentration detection buffer at a ratio of 1:25; Experimental steps
1. 5 μL of compounds to be tested (2×) was added;
2. 2.5 ul Tag1-PD-L1 protein and 2.5 ul Tag2-PD1 protein were added respectively, and the total reaction system is 10 ul, and reacted at 25° C. for 15 minutes;
3. 5 ul anti-Tag1-Eu3+ antibody and 5 ul anti-Tag2-XL665 antibody were added respectively, and reacted at 25° C. for 16 hours;
4. The fluorescence microplate reader HTRF reading program was used to read two readings at 665 nm and 620 nm, the ratio of the two wavelengths was used to judge the activity of the compound, and the IC50 of the compound to be tested is calculated by XLFIT5.0 (IDBS).

[1] = system: Jurkat T(PD1 Luc-)/CHOK1(PDL-1); test: Jurkat T(PD1 Luc-)/CHOK1(PDL-1) cell experiment (luciferase reporter); type: cell-based; conditions: CHO/PD-L1-OKT3 cells co-cultured with Jurkat/PD1-NFAT-Luc cells for 6 hours; Bio-Glo luciferase signal
Procedure: Assay 2 Jurkat T(PD1 Luc-)/CHOK1(PDL-1) Cell Experiment
G418, Sangon Biotech #A100859-0001, Cat Number G108BA0003, 5 ml of deionized water being added into each bottle, store at 4° C.
CHO/PD-L1-OKT3 cells (constructed by referring to Promega's PD-1/PD-L1 Blockade Bioassays system) cultured in F-12K medium (containing 10% FBS, 800 ug/ml G418, 400 ug/ml D Hygromycin B) were planted into a 96-well plate at 2×10^4 per well, and incubated for 24 hours at 37° C. and 5% CO2. part of the medium was removed, and the test compound dissolved in DMSO with a final concentration of 1 uM was added, and DMSO at the same concentration was added into the control cells. Jurkat/PD1-NFAT-Luc cells (constructed by referring to Promega's PD-1/PD-L1 Blockade Bioassays system) were added at 5×10^5 per well at the same time, and cultured for 6 hours. The corresponding luciferase signal was detected by Bio-Glo™ (Promega, G7940) reagent. The EC50 of each compound to be tested was calculated through the non-linear regression of XLfit software.

T1 sequence (Q9NZQ7 19-238 limits assumed): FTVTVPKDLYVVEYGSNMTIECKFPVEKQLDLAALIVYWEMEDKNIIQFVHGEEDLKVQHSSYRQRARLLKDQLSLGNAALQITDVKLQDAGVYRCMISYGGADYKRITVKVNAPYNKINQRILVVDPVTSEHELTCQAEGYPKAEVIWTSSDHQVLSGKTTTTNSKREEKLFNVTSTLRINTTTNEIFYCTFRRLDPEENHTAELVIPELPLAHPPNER

COc1cc(/C=C/c2cccc(-c3cccc(NC(=O)c4ccc(CN5CC[C@@H](O)C5)cn4)c3Cl)c2C)c(C(F)(F)F)cc1CN1CC[C@@H](C(=O)O)C1 [Z-80]
IC50 (PD-1/PD-L1): 1 nM | EC50 [1]: 36 nM

COc1cc(/C=C/c2cccc(-c3cccc(-c4nc5cc(CN6CC[C@@H](C(=O)O)C6)cc(C(N)=O)c5o4)c3C)c2C)c(C(F)(F)F)cc1CN1CC[C@@H](O)C1 [Z-27, (R)-1-((7-carbamoyl-2-(3′-((E)-4-(((R)-3-hydroxypyrrolidin-1-yl)methyl)-5-methoxy-2-(trifluoromethyl)styryl)-2,2′-dimethyl-[1,1′-biphenyl]-3-yl)benzo[d]oxazol-5-yl)methyl)pyrrolidine-3-carboxylic Acid]
IC50 (PD-1/PD-L1): 1 nM | EC50 [1]: 176 nM

Cc1cc(/C=C/c2cccc(-c3cccc(NC(=O)c4ccc(CN5CC[C@@H](O)C5)cn4)c3C)c2C)c(C2CC2)cc1CN1CC[C@@H](C(=O)O)C1 [Z-91]
IC50 (PD-1/PD-L1): 1 nM | EC50 [1]: 147 nM

COC(=O)C[C@H](O)CNCc1cc(C(F)(F)F)c(/C=C/c2cccc(-c3cccc(NC(=O)c4cc(OC)c(CN5CC[C@@H](O)C5)cn4)c3C)c2C)cc1OC [Z-128]
IC50 (PD-1/PD-L1): < 1 nM | EC50 [1]: 39 nM

COc1cc(/C=C/c2cccc(-c3cccc(NC(=O)c4nc5c(n4C)CCN([C@H]4CC[C@@H](O)CC4)C5)c3C)c2C)c(C(F)(F)F)cc1CN1CC[C@@H](C(=O)O)C1 [Z-131, (R)-1-(4-((E)-2-(3′-(5-((1s,4s)-4-hydroxycyclohexyl)-1-methyl-4,5,6,7-tetrahydro-1H-imidazo[4,5-c]pyridine-2-carboxamido)-2,2′-dimethyl-[1,1′-biphenyl]-3-yl)vinyl)-2-methoxy-5-(trifluoromethyl)benzyl)pyrrolidine-3-carboxylic Acid]
IC50 (PD-1/PD-L1): 1 nM | EC50 [1]: 124 nM

COc1cc(/C=C/c2cccc(-c3cccc(-c4nc5cc(CN6CC[C@@H](C(=O)O)C6)cc(C#N)c5o4)c3C)c2Cl)c(C(F)(F)F)cc1CN1CC[C@@H](O)C1 [Z-38]
IC50 (PD-1/PD-L1): 1 nM | EC50 [1]: 83 nM

Cc1cc(/C=C/c2nccc(-c3cccc(NC(=O)c4ccc(CNCCO)cn4)c3C)c2C#N)c(Cl)cc1CN1CCCC[C@H]1C(=O)O [Z-2, (S, E)-1-(5-chloro-4-(2-(3-cyano-4-(3-(5-(((2-hydroxyethyl)amino)methyl)picolinamido)-2-methylphenyl)pyridin-2-yl)vinyl)-2-methylbenzyl)piperidine-2-carboxylic Acid]
IC50 (PD-1/PD-L1): 1 nM | EC50 [1]: 79 nM

Cc1cc(/C=C/c2nccc(-c3cccc(-c4nc5cc(CN6CCC(C(=O)O)C6)cc(Cl)c5o4)c3C)c2C#N)c(C(F)(F)F)cc1CN1CC[C@@H](O)C1 (some centres unmarked) [Z-48]
EC50 [1]: 70 nM

CCOC(=O)[C@@H]1CCN(Cc2cc(C#N)c3oc(-c4cccc(-c5cccc(/C=C/c6cc(OC)c(CN7CC[C@@H](O)C7)cc6C(F)(F)F)c5C)c4C)nc3c2)C1 [Z-45]
EC50 [1]: 70 nM

Cc1c(NC(=O)c2ccc(CN3CC[C@@H](O)C3)cn2)cccc1-c1ccnc(/C=C/c2cc3nc(CN4CC[C@H](C(=O)O)C4)oc3cc2Cl)c1C#N [Z-64]
IC50 (PD-1/PD-L1): 18 nM

COc1cc(/C=C/c2cccc(-c3cccc(-c4cnc(CNC[C@@H]5CCC(=O)N5)c(OC)n4)c3Cl)c2C)c(C(F)(F)F)cc1CN1CC[C@@H](C(=O)O)C1 [Z-58]
EC50 [1]: 78 nM

Cc1cc(/C=C/c2nccc(-c3cccc(-c4nc5c(s4)CN(C(=O)CN(C)C)CC5)c3C)c2C#N)c(Cl)cc1CN1CC[C@@H](C(=O)O)C1 [Z-61, (R,E)-1-(5-chloro-4-(2-(3-cyano-4-(3-(5-(dimethylglycyl)-4,5,6,7-tetrahydrothiazolo [5,4-c]pyridin-2-yl)-2-methylphenyl)pyridin-2-yl)vinyl)-2-methylbenzyl)pyrrolidine-3-carboxylic Acid]
IC50 (PD-1/PD-L1): 2 nM

COc1cc(/C=C/c2cccc(-c3cccc(-c4nc5cc(CN6CCC[C@H]6C(=O)O)cc(C#N)c5o4)c3C)c2C)c(C(F)(F)F)cc1CN1CC[C@@H](O)C1 [Z-39]
IC50 (PD-1/PD-L1): 1 nM

COc1cc(/C=C/c2cccc(-c3cccc(NC(=O)c4cc(OC)c(CN5CC[C@@H](O)C5)cn4)c3C)c2C)c(C(F)(F)F)cc1CN1CCC(C(=O)NS(C)(=O)=O)C1 (some centres unmarked) [Z-139]
EC50 [1]: 7 nM

Cc1c(NC(=O)c2ccc(CNCCO)cn2)cccc1-c1ccnc(/C=C/c2ccc3c(c2)CCN(CC(=O)O)C3)c1C#N [Z-3, (E)-2-(6-(2-(3-cyano-4-(3-(5-(((2-hydroxyethyl)amino)methyl)picolinamido)-2-methylphenyl)pyridin-2-yl)vinyl)-3,4-dihydroisoquinolin-2(1H)-yl)acetic Acid]
IC50 (PD-1/PD-L1): 9 nM

COc1cc(/C=C/c2cccc(-c3cccc(NC(=O)c4cn5c(n4)CN(C)CC5)c3C)c2C)c(C(F)(F)F)cc1CN1CCC(C(=O)O)C1 (centres unmarked) [Z-129, (E)-1-(4-(2-(2,2′-dimethyl-3′-(7-methyl-5,6,7,8-tetrahydroimidazo[1,2-a]pyrazine-2-carboxamido)-[1,1′-biphenyl]-3-yl)vinyl)-2-methoxy-5-(trifluoromethyl)benzyl)pyrrolidine-3-carboxylic Acid]
IC50 (PD-1/PD-L1): 1 nM

COc1cc(C(=O)Nc2cccc(-c3cccc(/C=C/c4cc(C)c(CN5CC[C@@H](C(=O)O)C5)cc4C(F)(F)F)c3C)c2C)ncc1CN1CC[C@@H](O)C1 [Z-127]
IC50 (PD-1/PD-L1): 1 nM

Cc1cc(/C=C/c2cccc(-c3cccc(NC(=O)c4ccc(CN5CC[C@@H](O)C5)cn4)c3C)c2C(F)(F)F)c(Cl)cc1CN1CC[C@@H](C(=O)O)C1 [Z-88]
IC50 (PD-1/PD-L1): 3 nM

Cc1c(NC(=O)c2ccc(CN3CC[C@@H](O)C3)cn2)cccc1-c1ccnc(/C=C/c2ccc(CN3CC[C@@H](C(=O)O)C3)cn2)c1C#N [Z-69]
IC50 (PD-1/PD-L1): 57 nM

COc1cc(/C=C/c2cccc(-c3cccc(-c4nc5cc(CN6CC[C@@H](O)C6)ccc5o4)c3C)c2F)c(C(F)(F)F)cc1CN1CC[C@@H](C(=O)O)C1 [Z-20]
IC50 (PD-1/PD-L1): 2 nM

Cc1cc(/C=C/c2nccc(-c3cccc(Nc4nccc5cc(CN6CC[C@@H](O)C6)cnc45)c3C)c2C#N)c(Cl)cc1CN1CCCC[C@H]1C(=O)O [Z-7, (S)-1-(5-chloro-4-((E)-2-(3-cyano-4-(3-((3-(((R)-3-hydroxypyrrolidin-1-yl)methyl)-1,7-naphthyridin-8-yl)amino)-2-methylphenyl)pyridin-2-yl)vinyl)-2-methylbenzyl)piperidine-2-carboxylic Acid]
IC50 (PD-1/PD-L1): 1 nM

COc1cc(/C=C/c2cccc(-c3cccc(NC(=O)c4ccc(CN5CC[C@@H](O)C5)cc4)c3C)c2C)c(C(F)(F)F)cc1CN1CC[C@@H](C(=O)O)C1 [Z-123]
IC50 (PD-1/PD-L1): 1 nM

COc1cc(/C=C/c2cccc(-c3cccc(-c4nc5cc(CN6CC[C@H](C(=O)O)C6)ccc5o4)c3C)c2C)c(C(F)(F)F)cc1CN1CC[C@H](O)C1 [Z-32]
IC50 (PD-1/PD-L1): 2 nM

Cc1cc(/C=C/c2nccc(-c3cccc(NC(=O)c4nc5c(n4C)CCN(C)C5)c3C)c2C#N)c(Cl)cc1CN1CCCC[C@H]1C(=O)O [Z-66, (S,E)-1-(5-chloro-4-(2-(3-cyano-4-(3-(1,5-dimethyl-4,5,6,7-tetrahydro-1H-imidazo[4,5-c]pyridine-2-carboxamido)-2-methylphenyl)pyridin-2-yl)vinyl)-2-methylbenzyl)piperidine-2-carboxylic Acid]
IC50 (PD-1/PD-L1): 2 nM

Cc1cc(/C=C/c2nccc(-c3cccc(NC(=O)c4ccc(CN5CC[C@@H](O)C5)cn4)c3C)c2C#N)c(C2CC2)cc1CN1CC[C@@H](C(=O)O)C1 [Z-79, (R)-1-(4-((E)-2-(3-cyano-4-(3-(5-(((R)-3-hydroxypyrrolidin-1-yl)methyl)picolinamido)-2-methylphenyl)pyridin-2-yl)vinyl)-5-cyclopropyl-2-methylbenzyl)pyrrolidine-3-carboxylic Acid]
IC50 (PD-1/PD-L1): 1 nM

Cc1cc(/C=C/c2nccc(-c3cccc(NC(=O)c4ccc(CN5CC[C@@H](O)C5)cn4)c3C)c2C)c(Cl)cc1CN1CC[C@@H](C(=O)O)C1 [Z-65]
IC50 (PD-1/PD-L1): < 1 nM

COc1cc(/C=C/c2cccc(-c3cccc(-c4nc5cc(CN6CC[C@@H](C(=O)O)C6)cc(C#N)c5o4)c3C)c2F)c(C(F)(F)F)cc1CN1CC[C@@H](O)C1 [Z-25]
IC50 (PD-1/PD-L1): 1 nM

Cc1c(NC(=O)c2ccc(CNCCO)cn2)cccc1-c1ccnc(/C=C/c2ccc3c(c2)CCN(CCO)C3)c1C#N [Z-63]
IC50 (PD-1/PD-L1): 32 nM
